Data published in PMC8151276, “An Integrated Approach toward NanoBRET Tracers for Analysis of GPCR Ligand Engagement” (Molecules, 2021).
Blank lines part the entries; values can stand above or below the compound they belong to.

Key:
Format in all cases: binding
[1] = target: T1, BDKRB1 (Homo sapiens, UniProt P46663); experiment: NanoBRET screen HiBiT-BDKRB1 in HEK293
T1 construct: purchased Promega (in-house HiBiT-GPCR construct library, NanoBRET)
T1 sequence (P46663 1-353): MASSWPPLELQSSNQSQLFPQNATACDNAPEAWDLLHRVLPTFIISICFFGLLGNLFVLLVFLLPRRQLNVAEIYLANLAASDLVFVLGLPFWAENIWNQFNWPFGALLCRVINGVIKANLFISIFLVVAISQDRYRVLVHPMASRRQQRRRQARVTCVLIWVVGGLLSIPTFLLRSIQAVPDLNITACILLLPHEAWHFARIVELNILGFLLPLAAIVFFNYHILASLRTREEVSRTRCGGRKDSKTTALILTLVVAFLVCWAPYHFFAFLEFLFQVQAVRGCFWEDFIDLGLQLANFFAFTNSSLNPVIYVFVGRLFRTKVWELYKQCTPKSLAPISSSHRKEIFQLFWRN
Experimental: (§1) Each tracer candidate was screened across the entire library of HiBiT-GPCR constructs using NanoBRET as the detection modality. As depicted in Figure 4A, the specificity of interactions was evaluated through decrease in BRET due to competitive displacement of a bound tracer by excess parental compound. Each tracer was analyzed for binding to each HiBiT-GPCR fusion in the absence and in the presence of competing parental compound. Briefly, HEK293 cells were transfected with HiBiT-GPCR constructs diluted into promoterless DNA to reduce expression and maximize translocation to the cell surface. Each tracer candidate was then screened at concentrations of 1 μM and 0.1 μM across cells expressing these fusions. Cells were treated for 1.5 h with tracer either alone or in the presence of 20 μM competing parental compound (i.e., control). BRET was measured upon addition of purified LgBiT and subsequent complementation with HiBiT genetically fused to a GPCR. The specificity of interactions was assessed through a decrease in BRET signal due to competitive displacement of the bound tracer. To further gauge the robustness of these interactions, the fold response over the control (i.e., BRETtracer/BRETcontrol) was calculated. We chose a 1.5-fold response, which translates to ≥7-fold signal over noise as the minimal threshold required to score an interaction as positive. […]. Below we highlight the screening results obtained for our exemplary fluorescent tracers based on Clozapine, Amitriptyline and AZD1283.
(§2) HiBiT-GPCR DNA constructs were diluted in 10 mM Tris pH 8 to a final concentration of 0.01 μg/μL, arrayed in 96-well plates and stored at −20 °C. For transfection, HEK293 cells were suspended in Opti-MEM (without phenol red) supplemented with 2% fetal bovine serum (Seradigm) and 100 units/mL penicillin–streptomycin (Gibco) at a final concentration of 220,000 cells/mL and dispensed into white 96-well plates at 90 μL/well. Subsequent transfections and screens were carried using an Agilent Bravo Automated Liquid Handling Platform. First, the 96-well HiBiT DNA arrays were diluted 25-fold in Opti-MEM (without serum or phenol red) to a final concentration of 0.0004 μg/μL and 20 μL of the diluted DNAs were transferred into new 96-well plates. Next, promoterless carrier DNA (1 μg/μL) was diluted 25-fold (0.04 μg/μL) and then dispensed into the diluted arrays at 20 μL/well. Following brief mixing, Viafect transfection reagent (Promega) diluted 16-fold into Opti-MEM was dispensed into the plates at 40 μL/well. After mixing by pipetting, plates were incubated for 10 min on the pipetting station deck. The DNA-transfection reagent complexes were then added to plates containing cells. To facilitate the screen, 10 μL of DNA-transfection reagent complexes were added in duplicates to the top 4 and bottom 4 rows, resulting in two identical 48-well arrays per plate. Plates with transfected cells were incubated for 18–20 h at 37 °C/5% CO2. A screen of each tracer across the entire library using two different concentrations requires duplicate plates of transfected cells. Depending on the number of tracers being screened, transfections can be scaled up using the same ratios. The next day, for each tracer, four 20× screening solutions in tracer dilution buffer (Promega) were prepared: two duplicates at final concentration of 20 μM and two duplicates at a final concentration of 2 μM. A competing unmodified compound was added to one of each duplicate at a final concentration of 400 μM. The four resulting solutions were diluted 4-fold in Opti-MEM without serum or phenol red to generate 5× solutions (5 µM and 0.5 µM tracer +/− 100 μM competing compound). To screen the library, a BioTek MultiFlo FX liquid dispenser was used to dispense 22.5 µL of tracer solution to the top 4 rows and 22.5 µL tracer + competing compound solution to the 4 bottom rows. Plates were briefly mixed on an orbital shaker and incubated for 1.5 h at room temperature. […]

[2] = target: T2, LTB4R2 (Homo sapiens, UniProt Q9NPC1); experiment: NanoBRET screen HiBiT-LTB4R2 in HEK293
T2 construct: purchased Promega (in-house HiBiT-GPCR construct library, NanoBRET)
T2 sequence (Q9NPC1 1-358): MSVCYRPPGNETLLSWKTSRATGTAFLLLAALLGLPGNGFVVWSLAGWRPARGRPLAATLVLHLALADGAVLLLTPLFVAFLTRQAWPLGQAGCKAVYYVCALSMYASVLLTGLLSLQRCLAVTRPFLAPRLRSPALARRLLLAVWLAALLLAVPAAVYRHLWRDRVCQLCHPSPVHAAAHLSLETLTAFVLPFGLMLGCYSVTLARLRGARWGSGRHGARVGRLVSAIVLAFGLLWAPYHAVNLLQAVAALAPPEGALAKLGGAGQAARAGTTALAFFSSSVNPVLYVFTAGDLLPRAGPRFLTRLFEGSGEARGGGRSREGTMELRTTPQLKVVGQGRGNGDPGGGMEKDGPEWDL
Experimental: as §1, §2

[3] = target: T3, DRD5 (Homo sapiens, UniProt P21918); experiment: NanoBRET screen HiBiT-DRD5 in HEK293
T3 construct: purchased Promega (in-house HiBiT-GPCR construct library, NanoBRET)
Experimental: as §1, §2

[4] = target: T4, GALR1 (Homo sapiens, UniProt P47211); experiment: NanoBRET screen HiBiT-GALR1 in HEK293
T4 construct: purchased Promega (in-house HiBiT-GPCR construct library, NanoBRET)
T4 sequence (P47211 1-349): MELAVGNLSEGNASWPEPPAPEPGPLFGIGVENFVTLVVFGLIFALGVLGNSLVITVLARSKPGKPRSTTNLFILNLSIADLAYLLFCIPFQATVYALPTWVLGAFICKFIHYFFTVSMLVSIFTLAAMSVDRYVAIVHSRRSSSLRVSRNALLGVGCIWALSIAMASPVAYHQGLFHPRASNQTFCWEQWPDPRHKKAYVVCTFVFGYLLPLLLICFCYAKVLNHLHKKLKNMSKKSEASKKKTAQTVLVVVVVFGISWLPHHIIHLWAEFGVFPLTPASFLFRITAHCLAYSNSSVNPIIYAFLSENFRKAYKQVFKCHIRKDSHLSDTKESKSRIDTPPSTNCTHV
Experimental: as §1, §2

[5] = tracer at 0.1μM, listed as amitriptyline-b-2-NB590
[6] = tracer at 1μM, listed as amitriptyline-b-2-NB590

T3 sequence (P21918 whole entry): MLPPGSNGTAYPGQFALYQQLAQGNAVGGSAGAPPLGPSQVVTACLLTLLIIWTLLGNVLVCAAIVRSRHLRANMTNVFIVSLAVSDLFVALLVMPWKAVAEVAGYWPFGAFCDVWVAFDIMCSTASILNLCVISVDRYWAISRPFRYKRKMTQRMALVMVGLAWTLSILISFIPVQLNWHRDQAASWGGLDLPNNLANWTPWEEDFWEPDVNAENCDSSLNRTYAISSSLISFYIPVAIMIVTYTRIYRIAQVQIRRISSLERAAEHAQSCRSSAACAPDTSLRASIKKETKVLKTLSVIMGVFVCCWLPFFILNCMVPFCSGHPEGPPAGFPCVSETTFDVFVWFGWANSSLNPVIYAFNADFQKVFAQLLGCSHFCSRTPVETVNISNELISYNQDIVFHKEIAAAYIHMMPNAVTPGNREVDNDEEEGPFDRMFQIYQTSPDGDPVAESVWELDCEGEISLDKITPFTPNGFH

- NanoBRET Fold Response ([1]; BDKRB1, 0.1μM): 1.05
- NanoBRET Fold Response ([1]; BDKRB1, 1μM): 1.04
- NanoBRET Fold Response ([2]; LTB4R2, 0.1μM): 1.17
- NanoBRET Fold Response ([2]; LTB4R2, 1μM): 1.18
- NanoBRET Fold Response ([3]; DRD5, 0.1μM): 1.02
- NanoBRET Fold Response ([3]; DRD5, 1μM): 1.13
- NanoBRET Fold Response ([4]; GALR1, 0.1μM): 1.03
- NanoBRET Fold Response ([4]; GALR1, 1μM): 1.09
Compound: CCOC(=O)c1cc(C#N)c(N2CCC(C(=O)NS(=O)(=O)Cc3ccccc3/C=C/C(=O)NCCNC(=O)CCc3ccc4n3[B-](F)(F)[N+]3=C(c5ccc[nH]5)C=CC3=C4)CC2)nc1C [AZD1283-1-NB590]

- NanoBRET Fold Response ([3]; DRD5, other tracers/Aminopotentidine (unmodified), 0.1μM): 1.08
- NanoBRET Fold Response ([3]; DRD5, other tracers/Aminopotentidine (unmodified), 1μM): 1.09
Compound: N#CN/C(=N\CCNC(=O)c1ccc(N)cc1)NCCCOc1cccc(CN2CCCCC2)c1 [Aminopotentidine (unmodified)]

- NanoBRET Fold Response ([1]; BDKRB1, tracer 0.1μM): 1.01
- NanoBRET Fold Response ([1]; BDKRB1, tracer 1μM): 1.02
- NanoBRET Fold Response ([2]; LTB4R2, tracer 0.1μM): 0.96
- NanoBRET Fold Response ([2]; LTB4R2, tracer 1μM): 1.04
- NanoBRET Fold Response ([3]; DRD5, tracer 0.1μM): 1.02
- NanoBRET Fold Response ([3]; DRD5, tracer 1μM): 1.01
- NanoBRET Fold Response ([4]; GALR1, tracer 0.1μM): 1.02
- NanoBRET Fold Response ([4]; GALR1, tracer 1μM): 0.99
Compound: N#CN=C(NCCCOc1cccc(CN2CCCCC2)c1)NCCNC(=O)CCOCCOCCOCCOCCNC(=O)CCc1ccc2n1[B-](F)(F)[N+]1=C(c3ccc[nH]3)C=CC1=C2 [Aminopotentidine-2-NB590]

Compound: CN(C)CCC=C1c2ccccc2CCc2ccc(C(=O)NCCNC(=O)CCOCCOCCOCCOCCNC(=O)CCc3ccc4n3[B-](F)(F)[N+]3=C(c5ccc[nH]5)C=CC3=C4)cc21 [Amitriptyline-a-2-NB590]
- NanoBRET Fold Response ([1]; tracer at 0.1μM): 1.13
- NanoBRET Fold Response ([1]; tracer at 1μM): 1.04
- NanoBRET Fold Response ([2]; tracer at 0.1μM): 0.97
- NanoBRET Fold Response ([2]; tracer at 1μM): 1.08
- NanoBRET Fold Response ([3]; tracer at 0.1μM): 1.11
- NanoBRET Fold Response ([3]; tracer at 1μM): 1.12
- NanoBRET Fold Response ([4]; tracer at 0.1μM): 1.05
- NanoBRET Fold Response ([4]; tracer at 1μM): 0.97

Compound: CN(C)CCC=C1c2ccccc2CCc2ccc(C(=O)NCCNC(=O)CCOCCOCCOCCOCCNC(=O)CCc3ccc4n3[B-](F)(F)[N+]3=C(c5ccc[nH]5)C=CC3=C4)cc21 [Amitriptyline-b-2-NB590]
- NanoBRET Fold Response [1, 5]: 1.14
- NanoBRET Fold Response [1, 6]: 1.33
- NanoBRET Fold Response [2, 5]: 1.03
- NanoBRET Fold Response [2, 6]: 1.03
- NanoBRET Fold Response [3, 5]: 1.08
- NanoBRET Fold Response [3, 6]: 1.42
- NanoBRET Fold Response [4, 5]: 0.98
- NanoBRET Fold Response [4, 6]: 1.03
